In patent publication US11155567B2, “Sting agonist compounds and methods of use” (Mersana Therapeutics, Inc., priority 2019, dated 2021):

What was measured:
Assay type in all cases: cell-based
Human STING (HAQ allele) = molecular target: T1, Human STING (HAQ allele) (Homo sapiens, UniProt Q86WV6, G230A/H232R/R293Q/R71H); assay: IRF3 reporter induction in THP1-Dual Human Monocytes cells (homozygous HAQ STING allele); details: IRF3 reporter (secreted luciferase), 24 hours incubation
T1 construct: THP1-Dual™ Human Monocytes cells with the homozygous HAQ allele; host or cells: THP1-Dual human monocytes
Protocol: (§1) THP1-Dual™ Human Monocytes cells with the homozygous HAQ allele, known to be a natural variant allele of STING occurring in 20% of the human population (Invivogen) have been engineered with two independent gene reporter systems: a secreted embryonic alkaline phosphatase (SEAP) reporter gene for NFkB activity, and secreted luciferase reporter for […] (IRF3) activity were used. 4×10^5 THP1-Dual™ cells were incubated with test Compounds in a 5-fold titration steps from 1 to 0.0128 μM in RPMI media with 10% FBS, for 24 hours at 37° C. with 5% CO2. Cell culture supernatants (20 μl) from each incubated sample was added to resuspended QUANTI-Blue™ Solution (Invivogen, 180 μl) in each well of a flat-bottom 96-well plate, then incubated for 2 h. NFkB levels were evaluated using a spectrophotometer at 620-655 nm.
(§2) To evaluate IRF3 reporter levels, cell culture supernatant (20 μl) from each incubated sample was added to QUANTI-Luc™ assay solution (Invivogen, 50 μl), and the luminescence was measured with a SpectraMax M3 spectrophotometer (Molecular Devices).
(§3) The EC50 value was determined from the dose response curve based on reference Compounds. Table 2a provides the results for IRF3 reporter induction THP1-Dual™ Human Monocytes cells and Table 2b provides the results for IRF3 reporter induction in THP1-Dual™ KI-hSTING-H232 Cells and THP1-Dual™ KI-hSTING-R232 Cells (“A” means <30 nM; “B” means ≥30 nM and <100 nM; “C” means ≥100 nM).

[1] = molecular target: T2, R232H human STING variant (Homo sapiens, UniProt Q86WV6); assay: IRF3 reporter induction in THP1-Dual KI-hSTING-H232 Cells; details: THP1-Dual KI-hSTING-H232 Cells (R232H Haplotype)
T2 construct: host or cells: THP1-Dual KI-hSTING-H232 cells, generated from THP1-Dual KO-STING cells
Protocol: as §1, §2
(§4) NFkB and IRF3 reporter levels were also determined for THP1-Dual™ KI-hSTING-H232 Cells and THP1-Dual™ KI-hSTING-R232 Cells. THP1-Dual™ KI-hSTING-H232 Cells (R232H Haplotype) were generated from THP1-Dual™ KO-STING cells by knockin of the intronless coding sequence (from the ATG to TGA) of the R232H human STING variant (Invivogen). R232H has been identified as a natural variant allele of STING occurring in ˜14% of the human population. THP1-Dual™ KI-hSTING-R232 Cells (R232 Haplotype) were generated from THP1-Dual™ KO-STING cells by knockin of the intronless coding sequence (from the ATG to the TGA) of the R232 hSTING variant. Genomic studies indicate that this variant, which contains an arginine at position 232 (R232), is the most prevalent variant with an occurrence (homozygous allele) of ˜45-58% in the human population.
as §3

R232 hSTING variant = molecular target: T3, R232 hSTING variant (Homo sapiens, UniProt Q86WV6, H232R); assay: IRF3 reporter induction in THP1-Dual KI-hSTING-R232 Cells; details: THP1-Dual KI-hSTING-R232 Cells (R232 Haplotype)
T3 construct: expressed in transfected cells; host or cells: THP1-Dual KI-hSTING-R232 cells, generated from THP1-Dual KO-STING cells
Protocol: as §1, §2, §4, §3

Human STING = molecular target: T4, Human STING (Homo sapiens, UniProt Q86WV6, G230A/H232R/R293Q/R71H); assay: Activation of human STING signaling in permeabilized THP1 cells, IRF3 induction; details: THP1-Dual cells permeabilized with digitonin buffer 30 minutes on ice, then 24 h in RPMI media
T4 construct: host or cells: THP1-Dual cells, digitonin-permeabilized
Protocol: as §2
4×10^5 THP1-Dual™ cells (NF-κB-SEAP and IRF-Lucia luciferase Reporter Monocytes, Invivogen) were incubated with test Compounds in a 5-fold titration steps from […] in permeabilized buffer (50 mM HEPES pH 7.0, 100 mM KCl, 3 mM MgCl2, 85 mM sucrose, 0.2% BSA, 1 mM ATP, 0.1 mM GTP, 0.1 mM TTP, 1 μg/ml digitonin) for 30 minutes on ice. Cells were then washed and incubated in a fresh RPMI media with 10% FBS at 37° C. with 5% CO2 for 24 h. Cell culture supernatants from each sample were collected and NFkB and IRF3 were evaluated as above. Table 3 provides the results for IRF3 induction (“A” means <1 μM; “B” means ≥1 μM and <50 μM; “C” means ≥50 μM).

T2 sequence (Q86WV6 whole entry, stated change not applied): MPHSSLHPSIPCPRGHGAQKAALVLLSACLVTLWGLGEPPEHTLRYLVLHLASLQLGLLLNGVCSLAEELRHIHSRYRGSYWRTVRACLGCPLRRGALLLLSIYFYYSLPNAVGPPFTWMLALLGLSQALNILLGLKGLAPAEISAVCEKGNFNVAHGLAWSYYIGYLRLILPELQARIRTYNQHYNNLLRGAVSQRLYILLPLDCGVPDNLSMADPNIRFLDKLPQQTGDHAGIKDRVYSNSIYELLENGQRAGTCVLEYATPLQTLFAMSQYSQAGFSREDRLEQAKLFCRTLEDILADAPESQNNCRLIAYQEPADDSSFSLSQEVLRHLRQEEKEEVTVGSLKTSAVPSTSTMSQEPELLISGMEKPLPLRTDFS
T1 sequence (Q86WV6 whole entry R71H/G230A/H232R/R293Q): as the sequence (Q86WV6 whole entry, stated change not applied) above, with R71H, G230A, H232R, R293Q counted along it
T4 sequence (Q86WV6 whole entry R71H/G230A/H232R/R293Q): as the sequence (Q86WV6 whole entry, stated change not applied) above, with R71H, G230A, H232R, R293Q counted along it
T3 sequence (Q86WV6 whole entry H232R): as the sequence (Q86WV6 whole entry, stated change not applied) above, with H232R counted along it

EC50 (Human STING (HAQ allele)) | EC50 [1] | EC50 (R232 hSTING variant) | EC50 (Human STING) | Structure (SMILES)
30 to 100 nM | < 30 nM | < 30 nM | < 1000 nM | CCc1nc(C)oc1C(=O)/N=c1\sc2cc(C(N)=O)cnc2n1C/C=C/Cn1c(NC(=O)c2oc(C)nc2CC)nc2cc(C(N)=O)cc(OCCCO)c21 [compound 109]
30 to 100 nM | < 30 nM | < 30 nM | < 1000 nM | CCc1nc(C)oc1C(=O)Nc1nc2cc(C(N)=O)cnc2n1C/C=C/Cn1c(NC(=O)c2oc(C)nc2CC)nc2cc(C(N)=O)cc(OCCCO)c21 [compound 95]
≥ 100 nM | < 30 nM | < 30 nM | < 1000 nM | CCc1nc(C)oc1C(=O)/N=c1\sc2cc(C(N)=O)cc(OCCCO)c2n1C/C=C/Cn1c(NC(=O)c2oc(C)nc2CC)nc2cc(C(N)=O)cnc21 [compound 146]

Second part, the molecule before the results:

Structure (SMILES) | EC50 (Human STING (HAQ allele)) | EC50 [1] | EC50 (R232 hSTING variant) | EC50 (Human STING)
CCc1nc(C)oc1C(=O)/N=c1\sc2cc(C(N)=O)cc(OC)c2n1C/C=C/Cn1c(NC(=O)c2oc(C)nc2CC)nc2cc(C(N)=O)cc(OCCCC(=O)O)c21 [compound 66] | ≥ 100 nM | ≥ 100 nM | < 30 nM | < 1000 nM
CCc1nc(C)oc1C(=O)Nc1nc2cc(C(N)=O)cc(OC)c2n1C/C=C/Cn1c(NC(=O)c2oc(C)nc2CC)nc2cc(C(N)=O)cc(OCCCO)c21 [compound 9] | 30 to 100 nM | < 30 nM | < 30 nM | < 1000 nM
CCc1nc(C)oc1C(=O)/N=c1\sc2cc(C(N)=O)cc(OC)c2n1C/C=C/Cn1c(NC(=O)c2oc(C)nc2CC)nc2cc(C(N)=O)cc(OCCCO)c21 [compound 63] | ≥ 100 nM | < 30 nM | < 30 nM | < 1000 nM
